Assay [1] addresses T1, Peregrin (Homo sapiens) (UniProt P55201).
T1 sequence (whole entry): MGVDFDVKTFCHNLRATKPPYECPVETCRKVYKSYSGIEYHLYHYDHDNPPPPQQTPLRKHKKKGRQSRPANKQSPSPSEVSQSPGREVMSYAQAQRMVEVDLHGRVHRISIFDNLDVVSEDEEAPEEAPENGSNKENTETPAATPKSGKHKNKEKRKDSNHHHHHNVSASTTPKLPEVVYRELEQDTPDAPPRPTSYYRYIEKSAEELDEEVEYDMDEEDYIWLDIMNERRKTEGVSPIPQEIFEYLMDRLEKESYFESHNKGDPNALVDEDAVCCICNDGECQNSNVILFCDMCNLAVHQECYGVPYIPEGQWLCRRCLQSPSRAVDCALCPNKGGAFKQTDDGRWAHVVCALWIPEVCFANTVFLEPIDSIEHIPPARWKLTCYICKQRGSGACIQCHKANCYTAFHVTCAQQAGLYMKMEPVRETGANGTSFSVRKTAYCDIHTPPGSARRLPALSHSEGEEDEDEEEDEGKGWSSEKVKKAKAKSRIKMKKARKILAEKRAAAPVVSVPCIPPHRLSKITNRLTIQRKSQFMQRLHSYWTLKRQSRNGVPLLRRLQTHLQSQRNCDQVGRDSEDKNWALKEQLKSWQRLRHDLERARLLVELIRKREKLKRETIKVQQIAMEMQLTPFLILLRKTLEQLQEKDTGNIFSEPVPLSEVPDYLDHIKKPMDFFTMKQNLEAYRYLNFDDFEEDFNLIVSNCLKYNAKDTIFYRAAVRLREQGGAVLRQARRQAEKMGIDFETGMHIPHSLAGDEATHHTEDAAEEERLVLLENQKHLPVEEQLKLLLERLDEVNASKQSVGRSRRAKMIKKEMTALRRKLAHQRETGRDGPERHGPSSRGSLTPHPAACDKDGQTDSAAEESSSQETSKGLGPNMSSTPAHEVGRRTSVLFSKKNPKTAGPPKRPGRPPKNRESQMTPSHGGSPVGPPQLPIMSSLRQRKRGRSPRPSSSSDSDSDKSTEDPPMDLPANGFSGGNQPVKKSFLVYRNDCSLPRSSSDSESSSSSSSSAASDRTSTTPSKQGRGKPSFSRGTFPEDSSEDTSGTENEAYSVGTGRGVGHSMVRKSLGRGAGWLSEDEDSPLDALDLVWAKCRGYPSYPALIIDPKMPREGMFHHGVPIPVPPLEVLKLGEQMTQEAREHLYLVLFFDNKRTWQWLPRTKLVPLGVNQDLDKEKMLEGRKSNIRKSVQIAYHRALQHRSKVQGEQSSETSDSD
Conditions: Compound concentration 20.0 uM.

Assay [2] addresses Fibroblast growth factor receptor 2 (Homo sapiens) (UniProt P21802). The conditions noted are these: Compound concentration 20.0 uM.
Description: Thermal Shift Assay. Domain: start/stop: T457-E768

Broadly, the ΔTm is the change in melting temperature against a reference sample.

Residues, ends and D or L forms follow the SMILES beside them.

Sequence of Fibroblast growth factor receptor 2 (Homo sapiens) (P21802 22-821 limits assumed): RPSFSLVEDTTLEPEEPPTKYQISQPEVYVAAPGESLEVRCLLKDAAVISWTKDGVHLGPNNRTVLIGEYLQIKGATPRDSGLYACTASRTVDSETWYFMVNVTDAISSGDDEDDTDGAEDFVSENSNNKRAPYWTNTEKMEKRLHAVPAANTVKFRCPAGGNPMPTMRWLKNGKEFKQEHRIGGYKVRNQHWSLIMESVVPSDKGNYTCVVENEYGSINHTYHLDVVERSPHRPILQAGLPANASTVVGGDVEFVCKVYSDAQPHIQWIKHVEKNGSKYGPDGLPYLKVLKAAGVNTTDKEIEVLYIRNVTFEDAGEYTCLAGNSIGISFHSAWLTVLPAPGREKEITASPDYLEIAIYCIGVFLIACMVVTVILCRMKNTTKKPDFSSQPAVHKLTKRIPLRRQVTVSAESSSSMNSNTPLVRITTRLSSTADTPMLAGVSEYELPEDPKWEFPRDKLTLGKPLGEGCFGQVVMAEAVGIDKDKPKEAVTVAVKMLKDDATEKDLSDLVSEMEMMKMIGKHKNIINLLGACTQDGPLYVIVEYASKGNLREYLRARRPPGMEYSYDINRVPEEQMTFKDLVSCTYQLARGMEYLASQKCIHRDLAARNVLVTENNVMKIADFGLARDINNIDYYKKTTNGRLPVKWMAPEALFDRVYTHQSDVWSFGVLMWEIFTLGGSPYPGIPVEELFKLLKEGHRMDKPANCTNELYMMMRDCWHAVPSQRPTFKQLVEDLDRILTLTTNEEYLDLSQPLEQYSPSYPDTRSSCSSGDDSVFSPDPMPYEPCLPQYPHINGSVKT

On to `Cc1cccc(N/N=C(\C(=O)c2cccs2)C(=O)C(F)(F)F)c1`, for which the results for the ΔTm in assay [1] and in assay [2] were 1.4 °C and -0.22 °C, respectively.

In the case of `Cc1[nH]nc(C(F)(F)F)c1Cc1sc2c(c1C(=O)N1C[C@](C)(O)CO1)c(=O)n(C)c(=O)n2C(C)C`, the figures for the ΔTm in assay [1] and in assay [2] were 0.94 °C and 1.06 °C, respectively.

`O=C1c2ccccc2C(=O)c2oc(-c3ccccc3)nc21`: the results for the ΔTm in assay [1] and in assay [2] were 1.63 °C and -1.3 °C, respectively.

For the molecule `CCCN(CCC)c1ccc(C=O)cc1Br`, the ΔTm was -0.41 °C in assay [1] and 0.23 °C in assay [2].

Regarding `COc1ccc(Cc2nc(O)c3c(C)nc([C@@H](CCCc4ccccc4)[C@@H](C)O)n3n2)cc1OC`, the ΔTm came to 0.21 °C in assay [1] and 0.51 °C in assay [2].

Turning to `O=c1[nH]c(Oc2cnn(Cc3ccccc3)c2)nc2cnccc12`, the ΔTm is 3.09 °C in assay [1] and -0.24 °C in assay [2].

`N=C(N)N/N=C/c1cccc(Cl)c1Cl`: the ΔTm in assay [1] is -0.71 °C; in assay [2], 0.87 °C.

On to `C[C@@H]1CN(Cc2ncccn2)C[C@H]1c1nc2c(cnn2C2CCOCC2)c(=O)[nH]1`, for which the figures for the ΔTm in assay [1] and in assay [2] were 0.83 °C and 0.17 °C, respectively.

With `Nc1nc(NC2CC2)cc(-c2cccc(Cl)c2Cl)n1`, the ΔTm was found to be 0.95 °C in assay [1] and 0.04 °C in assay [2].

For the molecule `COc1cc(Cl)ccc1C1=CN(c2ccc(-c3ccccc3OC)cc2)C2=NCCCN12`, the ΔTm in assay [1] is -0.95 °C; in assay [2] it was -1.01 °C.

Regarding `CC(=O)NCC(=O)N1CCC[C@@H]1B(O)O`, the values for the ΔTm in assay [1] and in assay [2] were 2.29 °C and 0.51 °C, respectively.

For `CC(C)Oc1ccc2c(=O)[nH]c3sccc3c2c1`, the figures for the ΔTm in assay [1] and in assay [2] were -0.93 °C and 0.02 °C, respectively.

In the case of `C[C@@H]1OC(=O)NN=C1c1ccc(-c2ccc(F)cc2)c(C(F)(F)F)c1`, the results for the ΔTm in assay [1] and in assay [2] were 0.4 °C and -0.74 °C, respectively.

In the case of `Nc1cccc(Nc2ncc(-c3ccc(Cl)cc3)o2)c1`, the ΔTm in assay [1] was found to be 4.7 °C; in assay [2], 2.1 °C.

For `Cc1cccc(Nc2ccncc2S(=O)(=O)NC(=O)NC(C)C)c1`, the ΔTm in assay [1] was 0.33 °C; in assay [2], -0.51 °C.

On to `CCOCC1(COCC)CCC(c2n[nH]cc2CN(C)CCNC)CC1`, for which the ΔTm in assay [1] was -0.75 °C; in assay [2], -0.35 °C.

For `N#Cc1ccc(-c2c3n(c4cccnc24)CCN(C2CC2)C3=O)cc1F`, the figures for the ΔTm in assay [1] and in assay [2] were -0.31 °C and -0.59 °C, respectively.

As to `Cc1cc(/N=N/c2ccc(S(=O)(=O)NC3CCCC3)cc2)c(N)cc1O`, the results for the ΔTm in assay [1] and in assay [2] were 7.73 °C and 2.06 °C, respectively.

Regarding `COc1cc(C(=O)N2C[C@H](N)CC[C@@H]2C)cc2nc(-c3cc4cccnc4n3CC3CC3)n(C)c12`, the ΔTm in assay [1] turned out to be 0.21 °C; in assay [2], 0.33 °C.

Take `CC[C@H](C)[C@H](NC(=O)[C@H](CCC(=O)O)NC(=O)[C@@H](NC(C)=O)C(C)C)C(=O)N[C@H](C=O)CC(=O)O` (Ac-VEID-aldehyde): the results for the ΔTm in assay [1] and in assay [2] were -1.43 °C and -0.3 °C, respectively.

Consider `C=CCn1c(N[C@@H]2C[C@H](c3ccc(OCc4ccccc4)cc3)CN(C)C2)nc2cc[nH]c2c1=O`, for which the results for the ΔTm in assay [1] and in assay [2] were 3.96 °C and 0.37 °C, respectively.

`NS(=O)(=O)c1cc(-c2nnn[nH]2)c(NCc2cccs2)cc1Cl`: the ΔTm was determined as 2 °C in assay [1] (Protein concentration 2.0 uM) and 0.38 °C in assay [2].

As to `COc1cc([C@@H]2Oc3c(O)cc([C@H]4Oc5cc(O)cc(O)c5C(=O)[C@@H]4O)cc3[C@H]2CO)ccc1O`, the ΔTm is 2.27 °C in assay [1] and -0.46 °C in assay [2].

For `O=C(Cc1ccccc1)c1cc(O)c(O)c([N+](=O)[O-])c1`, the results for the ΔTm in assay [1] and in assay [2] were 0.33 °C and 0.57 °C, respectively.

In the case of `CCCSc1nc2c(c(=O)n1-c1ccccc1)SCC2`, the results for the ΔTm in assay [1] and in assay [2] were 0.27 °C and 0.36 °C, respectively.

For the molecule `CC(=O)N[C@@H](CC(C)C)C(=O)N[C@@H](CCC(=O)O)C(=O)N[C@@H](Cc1cnc[nH]1)C(=O)N[C@H](C=O)CC(=O)O` (Ac-LEHD-aldehyde), the ΔTm in assay [1] is -1.22 °C; in assay [2], 0.53 °C.

For the molecule `Cc1sc(C(=O)c2cncnc2N[C@@H]2C[C@H](COS(N)(=O)=O)[C@@H](O)C2)cc1[C@@H]1NCCc2ccc(Cl)cc21`, the ΔTm in assay [1] is -1.17 °C; in assay [2] it was 0.33 °C.

In the case of `CC(C)(CNC(=O)c1cccc(-c2noc(C(F)(F)F)n2)c1)c1coc(-c2ccccc2)n1`, the ΔTm in assay [1] was -1.34 °C; in assay [2] it was 0.16 °C.

`CNc1ncc2cc(-c3cc(NC(=O)NCCC(C)(C)C)c(F)cc3C)c(C)nc2n1`: the ΔTm in assay [1] was -0.16 °C; in assay [2], 5.58 °C.

In the case of `CS(=O)(=O)c1ccc(-c2cnc(NCc3ccco3)n3cnnc23)cc1`, the ΔTm in assay [1] is -1.15 °C; in assay [2], 0.54 °C.

Consider `Cc1[nH]c2c(N3CCCCC3)c(-c3ccccc3)nn2c(=O)c1-c1ccc(O)cc1`, for which the ΔTm is -0.91 °C in assay [1] and 0.5 °C in assay [2].

With `Cc1nc(Nc2ncc(C(=O)Nc3c(C)cccc3Cl)s2)cc(N2CCN(CCO)CC2)n1`, the shift in melting temperature (ΔTm) was -0.2 °C in assay [1] and 4.7 °C in assay [2].

On to `O=c1c2nnc(C3CCOCC3)n2cc(Br)n1CC1CCCC1`, for which the ΔTm in assay [1] is -0.41 °C; in assay [2], -0.26 °C.

Regarding `Cc1cc(Cl)cc(-c2c3sc(CN4C(=O)C5C(C4=O)C5(C)C)cc3nn2C)c1OC1CCNCC1` (stereo not given), the ΔTm was 0.52 °C in assay [1] and -0.72 °C in assay [2].

Regarding `O=C(CN1CCN(C(=O)c2ccco2)CC1)Nc1cc(C(F)(F)F)ccc1Cl`, the ΔTm was -0.04 °C in assay [1] and 0.27 °C in assay [2].

As for `CCCN1CCN(c2ccc(C(=O)NC3(C(=O)NCC#N)CCCCC3)cc2)CC1`, the ΔTm was -1.09 °C in assay [1] and 0.76 °C in assay [2].

Regarding `O=C(O)Cn1nnc(-c2ccc(CN(CCCCOc3ccc(CN4CCCC4)cc3)CCc3ccccc3)cc2)n1`, the ΔTm is -2.23 °C in assay [1] and -2.96 °C in assay [2].

As for `CNCCN(C)Cc1cn[nH]c1-c1ccc(OC2CC(OCCC3CCOCC3)C2)cc1` (stereo not given), the ΔTm in assay [1] is -0.84 °C; in assay [2], 0.29 °C.

Consider `O=c1[nH][nH]c(=O)c2cc(OCc3ccccc3F)ccc12`, for which the ΔTm in assay [1] was found to be 2.62 °C; in assay [2] it was 0.22 °C.

For the molecule `N#Cc1cccnc1N1CCN(C(=O)c2cccc(Cc3n[nH]c(=O)c4ccccc34)c2)CC1`, the ΔTm was 1.88 °C in assay [1] and -0.1 °C in assay [2].

Turning to `COc1ccc(-c2c(-c3ccc(C#N)c(F)c3)nc(N3CCC(N)CC3)n(C)c2=O)cc1F`, the ΔTm in assay [1] was determined as 1.09 °C; in assay [2] it was 0.16 °C.

On to `NS(=O)(=O)OC[C@H]1C[C@@H](Nc2ncncc2C(=O)c2ccn(Cc3cccc(Br)c3)n2)C[C@@H]1O`, for which the ΔTm in assay [1] is 1.11 °C; in assay [2] it was -0.38 °C.

Regarding `Cc1c(NC(=O)c2cc(C(N)=O)nc3cc(F)ccc23)c(C(F)(F)F)nn1Cc1ccc(C#N)cc1`, the ΔTm was 0.94 °C in assay [1] and 0.32 °C in assay [2].

In the case of `COc1cc2c(NC3CCN(C4CCCCC4)CC3)nc(N3CCCN(C(C)C)CC3)nc2cc1OCCCN1CCCCC1`, the values for the thermal shift (ΔTm) in assay [1] and in assay [2] were -1.05 °C and 0.34 °C, respectively.

In the case of `Cc1[nH]c2c(N3CCO[C@H](CO)C3)c(C#N)c(C(F)(F)F)nc2c1Cl`, the ΔTm in assay [1] came out at 1.11 °C; in assay [2], 0.41 °C.

The values are drawn from ChEMBL document CHEMBL5724796, “Tm Shift (DSF) assay results for EUbOPEN Chemogenomics Library” (2024).
